Test results as given in patent US8853274B1, “Compositions and methods for targeting glioblastomas cells” (Vanderbilt University, priority 2011, dated 2014).

Experiments:
Format in all cases: cell-based, human
T4302 CD133+ cells = test: Cell growth / viability on day 5 (CellTiter-Glo); details: 100 nM; with or without 3 Gy radiation
Procedure: (§1) (A, B) T4302 CD133+ cells were treated with 100 nM RO4929097 (GSI) and/or 100 nM tipifarnib (FTI) for 4 hours prior to 3 Gy radiation. (A) Cell growth on day 5 and (B) caspase 3/7 activation on day 3 were determined as described in FIG. 4. #: p<0.001 by one-way ANOVA, combo vs. single agents. (C) The effects of GSIs and FTI against growth of T4302 CD133− cells were determined as described in panel A. (D, E) T4302 CD133+ cells were treated with GSI, FTI, or a 1:1 mixture at different concentrations (ranging from 3000 nM to ˜0.5 nM, 1:3 dilution)±3 Gy radiation. Cell viability was determined at 5 days after treatment in comparison to vehicle-treated groups. […] (F) T4302 CD 133+ cells were treated by GSI±FTI with a 2-fold dilution. Neurospheres were countered on day 10, and normalized to the vehicle-treated group.
GSC sensitivity to drug(s) was primarily measured as inhibition of cell viability (survival). Cells were treated with drugs alone or in combination±3-Gy radiation at indicated concentrations. Cell viability is determined by CellTiter-Glo kit (Promega) after 5-day incubation. IC50 values are calculated by the GraphPad Prism5 software.

T4302 CD133− cells = test: Growth / survival of non-stem GBM cells; details: day 5
Procedure: as §1
Tumor cells are enzymatically dissociated from freshly collected subcutaneous xenograft tumors and cultured overnight before sorting. The CD133− and CD133+ fractions are separated either by magnetic sorting using the CD133 Microbead kit (Miltenyi Biotech), or labeled with APC-conjugated CD133 antibody (Miltenyi Biotech) and sorted by flow cytometry. CD133+ cells are maintained in neurobasal media supplemented with 2% B-27, 20 ng/ml EGF, and 20 ng/ml bFGF. […]

GBM 44 = test: Growth inhibition at day 5, spheroid GBM culture
Procedure: (§2) (A) Known genetic features of selected GBM samples. WT: wild type; Amp: amplification; vIII: EGFRvIII; ND: not determined. (B) Spheroid GBM cultures were derived from freshly collected subcutaneous tumors and cultured for 2 weeks in stem cell media to enrich stem cell-like cancer cells. SF7225 was maintained as a primary spheroid culture. Growth inhibition at day 5 after treatment was determined as described in FIG. 5. *: p<0.01 by Student's t-test and growth inhibition ≧30% vs. the corresponding vehicle-treated groups. #: p<0.01 and >30% growth inhibition vs. the radiation only groups.
(§3) Work is now extended to a set of subcutaneous GBM xenografts (GBM) established by Dr. Jann Sarkaria and colleagues at Mayo Clinic. These samples are known to have mutational status of EGFR, p53 and PTEN and different radiosensitivity (FIG. 8A) (69-71). Because the cancer stem cell identity of CD133+ of the Mayo Clinic samples has not been validated by functional assays, the present inventor used the neurosphere culture that is widely utilized as a surrogate of GSCs for its ability to enrich GSC-like population (72, 73). Tumor response to GSI, FTI and/or radiation was determined as growth inhibition on day 5 after treatment, with a greater than 30% cell number reduction was defined as positive response mimicking the RECIST criteria (FIG. 8B). […] Therefore, the present inventor will continuously expand the GBM panel and determine the genomic features of all samples with focus on prevalent GBM-associated aberrations. On the basis of this molecularly characterized tumor panel, the present inventor will start to explore the potential biomarkers that may predict tumor response to the combination therapy of radiation, GSI and FTI by experiments described in herein.

GBM43 = test: Growth inhibition at day 5, spheroid GBM culture; details: effects diminished after radiation
Procedure: as §2, §3

HIF1α and HIF2α = test: Immunoblot of HIF1α/HIF2α under hypoxia in T4302 CD133+ cells; details: 200 nM 24 h, then 2% O2 16 h
Procedure: (A) T4302 CD133+ cells were treated with 200 nM RO4929097 (GSI), and irradiated 4 hours later. Cells were cultured for two days and lysed for immunoblotting. (B) T4302 CD133+ cells were treated with 200 nM GSI or FTI±radiation. Cells were lysed 2 days after treatment. (C) T4302 CD133+ cells were treated with 200 nM GSI±FTI for 24 hours, and left under normoxia or in 2% O2 for 16 hours before being lysed for immunoblotting.

[1] = test system: T4302 CD133+ cells expressing RhoB shRNA; test: Growth, caspase and Akt phosphorylation in RhoB shRNA cells; details: 100 nM
Procedure: (A) T4302 CD133+ cells were infected with lentivirus directing expression of a non-targeting shRNA or two RhoB specific shRNA. Cells were lysed for immunoblotting 3 days after infection. (B, C) Two days after infection, cells were selected with puromycin for two days, and plated in 96-well plates for growth curve assays. Cell growth was measured on days 1, 3 and 5 after plating, and normalized to the corresponding readout on day 1. (D-F) After lentiviral infection and puromycin selection as described above, T4302 CD133+ cells were treated with 100 nM GSI, FTI, ±3 Gy radiation and plated for subsequent experiments. (D) Relative growth on day 5, (E) caspase activation on day 3, and (F) protein levels on day 1 after treatment were determined as described in FIG. 4. *: p<0.001 by Student's t-test in comparison to the corresponding control groups.

**Q.** Which results are given for `CC(C)(C(=O)NCC(F)(F)C(F)(F)F)C(=O)N[C@@H]1C(=O)Nc2ccccc2-c2ccccc21` [RO4929097]?
**A.** degree of growth inhibition after 5-day treatment, in words (T4302 CD133+ cells): weaker growth inhibition; effect on growth of CD133− non-stem GBM cells (T4302 CD133− cells): largely insensitive; growth inhibition on day 5 (GBM 44; 0 Gy): 48±3.2%; growth inhibition on day 5 (GBM 44; 3 Gy): 65±3.3%; tumor response (growth inhibition day 5), in words (GBM43): moderate response; HIF1α and HIF2α levels upon hypoxia stimulation (HIF1α and HIF2α): moderate reduction; Akt phosphorylation in RhoB knockdown cells compared with control cells ([1]; day 1): greater reduction of Akt phosphorylation; sensitivity of RhoB shRNA cells (growth day 5, caspase day 3) ([1]; ±3 Gy): highly sensitive
